Literature values, collected in US20040202615A1, “Melt-processed powder containing particles' repulsion agent, evaporation retardant, and means for benefit to plant cultivation and/or animal husbandry” (priority 2003, published 2004).

System: natural living organisms in water
Details: active ingredient level 0.04-1.0% in plastic pool and pit liners

Question: Which “slowing of degradation of plastic liners by natural living organisms” value does the source give for `CCCCCCCCn1sccc1=O` [2-o-octyl-4-isothiazolin-3-one] here?
Answer: significantly slows down their degradation
